Legend:
Assay type in all cases: binding
[1] = tested on: antibodies in sera from TB patients and PPD+/PPD- healthy subjects; assay: ELISA of PE-PGRS51 overlapping peptides with human sera; settings: for non-specific reactivity with sera from HIV+TB- subjects: 20 HIV+TB- subjects, positive/tested; for final sensitivity: percent of patients whose sera recognize the peptide: 90 sputum smear positive TB patients, positive 2/3 or 3/3 times, cut-off mean plus 4 SD; for Immunoreactive: PE-PGRS51 peptides, biotinylated, streptavidin plates, TB patient sera
[2] = tested on: antibodies in sera from HIV-TB+ patients and PPD+/PPD- healthy controls; assay: ELISA of LipC overlapping peptides with human sera; settings: biotinylated, streptavidin plates, patient sera
[3] = tested on: antibodies in sera from HIV-TB+ patients and PPD+/PPD- healthy controls; assay: ELISA of PTRP overlapping peptides with human sera; settings: for Immunoreactive: PTRP peptides, biotinylated, streptavidin plates, TB patient sera; for percent of HIV-TB+ patient sera positive with the peptide in 2/3 or 3/3 tests: 60 HIV-TB+ patients, cut-off mean OD of PPD+/PPD- plus 3 SD, retested twice
[4] = tested on: anti-LipC antibodies in sera from TB patients; assay: Western blot of His-tagged LipC probed with human sera; settings: for sera showing anti-LipC antibodies: positive/tested

Molecule | Immunoreactive [1] | Immunoreactive [3] | also measured
AGAGGNGAAGGDGGANGGAG [PG-31] | ++ (++ indicates that the peptides were recognized by 40% or more TB patient sera) | – | non-specific reactivity with sera from HIV+TB- subjects [1]: no cross-reactivity; percent of HIV+TB+ patient sera recognizing the peptide (sensitivity) ([1]; 30 smear positive HIV+TB+ patients): 57%; final sensitivity: percent of patients whose sera recognize the peptide [1]: 52%
AHAIALFLNQVHRSRAQFAK [Lp-39] | – | – | Immunoreactive [2]: ++ (++ immunodominant based on being recognized by 45% or more patient sera)
ARPADYMLALSVAGGSLPVV [Lp-3] | – | – | Immunoreactive [2]: ++ (++ immunodominant based on being recognized by 45% or more patient sera)
DATTSLPRAEAGQSGSEGEQ [PT-23] | – | ++ (++ indicates that the peptides were recognized by 40% or more TB patient sera) | –
DGGLLFGNGGAGYNSAATPG [PG-14] | ++ (++ indicates that the peptides were recognized by 40% or more TB patient sera) | – | –
DRSLAGENHRLVATRLCWPD [PT-6] | – | ++ (++ indicates that the peptides were recognized by 40% or more TB patient sera) | –
FPGWQPGMPTIPTAPPTTPV [PT-41] | – | ++ (++ indicates that the peptides were recognized by 40% or more TB patient sera) | percent of HIV-TB+ patient sera positive with the peptide in 2/3 or 3/3 tests [3]: 55%
GGTGGDGGDGGHAGTGGRGG [PG-51] | ++ (++ indicates that the peptides were recognized by 40% or more TB patient sera) | – | –
GGTHGTPGSGNAGGTGTGNA [PG-55] | ++ (++ indicates that the peptides were recognized by 40% or more TB patient sera) | – | final sensitivity: percent of patients whose sera recognize the peptide [1]: 49%
GHAGTGGRGGLLAGQHANSG [PG-52] | ++ (++ indicates that the peptides were recognized by 40% or more TB patient sera) | – | –
GNGGAGGDANGNPANTSIAN [PG-29] | ++ (++ indicates that the peptides were recognized by 40% or more TB patient sera) | – | –
GSRDCVIPVEQARSFVERLR [Lp-34] | – | – | Immunoreactive [2]: ++ (++ immunodominant based on being recognized by 45% or more patient sera)
GTPGGAGVNGGNGGAGGDAN [PG-28] | ++ (++ indicates that the peptides were recognized by 40% or more TB patient sera) | – | –
IAVAGCSAGGHLSALAGLTA [Lp-24] | – | – | Immunoreactive [2]: ++ (++ immunodominant based on being recognized by 45% or more patient sera)
LAAAASDVANIGSALSAANA [PG-2] | ++ (++ indicates that the peptides were recognized by 40% or more TB patient sera) | – | non-specific reactivity with sera from HIV+TB- subjects [1]: 2/20; final sensitivity: percent of patients whose sera recognize the peptide [1]: 48%
LLAGQHANSGNGGGGGTGGA [PG-53] | ++ (++ indicates that the peptides were recognized by 40% or more TB patient sera) | – | –
LQDSGVHDVAVISEAQAATA [PT-9] | – | ++ (++ indicates that the peptides were recognized by 40% or more TB patient sera) | percent of HIV-TB+ patient sera positive with the peptide in 2/3 or 3/3 tests [3]: 58%

Molecule | Immunoreactive [1] | Immunoreactive [3] | also measured
LSVVGDPDAPPTMVAVAPVA [PT-13] | – | ++ (++ indicates that the peptides were recognized by 40% or more TB patient sera) | percent of HIV-TB+ patient sera positive with the peptide in 2/3 or 3/3 tests [3]: 53%
LTGNDGVNPAPVTNPALNGA [PG-24] | ++ (++ indicates that the peptides were recognized by 40% or more TB patient sera) | – | –
MAGGNGGNAGLIGNGGTGGS [PG-16] | ++ (++ indicates that the peptides were recognized by 40% or more TB patient sera) | – | –
MDVALGVAVTDRVARLALVD [PT-1] | – | ++ (++ indicates that the peptides were recognized by 40% or more TB patient sera) | –
NDPQYQAELPEGSDTSVDAV [Lp-26] | – | – | Immunoreactive [2]: ++ (++ immunodominant based on being recognized by 45% or more patient sera)
NGGAGGDAGHGGTGGDGGDG [PG-50] | ++ (++ indicates that the peptides were recognized by 40% or more TB patient sera) | – | non-specific reactivity with sera from HIV+TB- subjects [1]: 1/20; final sensitivity: percent of patients whose sera recognize the peptide [1]: 50%
PIPVPIIIPPFPGWQPGMPT [PT-40] | – | ++ (++ indicates that the peptides were recognized by 40% or more TB patient sera) | percent of HIV-TB+ patient sera positive with the peptide in 2/3 or 3/3 tests [3]: 52%
PTMVAVAPVAGADATSTVDT [PT-14] | – | ++ (++ indicates that the peptides were recognized by 40% or more TB patient sera) | –
QQAPVPPPPPDDPTAGFQGG [PT-34] | – | ++ (++ indicates that the peptides were recognized by 40% or more TB patient sera) | –
QTPDDPTFALARGAAMAAGA [PT-20] | – | ++ (++ indicates that the peptides were recognized by 40% or more TB patient sera) | –
SAAPGTVIDQFVLDVAEHPV [PT-3] | – | ++ (++ indicates that the peptides were recognized by 40% or more TB patient sera) | –
SVAGGSLPVVGKHLKPLGGV [Lp-4] | – | – | Immunoreactive [2]: ++ (++ immunodominant based on being recognized by 45% or more patient sera)
TAIGVWGARHASDFLSATAK [Lp-6] | – | – | Immunoreactive [2]: ++ (++ immunodominant based on being recognized by 45% or more patient sera)
TGAGGSYALTEAANVQQNLL [PG-9] | ++ (++ indicates that the peptides were recognized by 40% or more TB patient sera) | – | –
TTPPTTPVTTPPTTPPTTPV [PT-45] | – | ++ (++ indicates that the peptides were recognized by 40% or more TB patient sera) | –
LipC: purified His-tagged recombinant Mtb LipC protein (SEQ ID NO:6), probable esterase (protein, His tag; Mycbacterium tuberculosis Strain H37Rv) MNQRRAAGSTGVAYIRWLLRARPADYMLALSVAGGSLPVVGKHLKPLGGVTAIGVWGARHASDFLSATAKDLLTPGINEVRRRDRASTQEVSVAALRGIVSPDDLAVEWPAPERTPPVCGALRHRRYVHRRRVLYGDDPAQLLDVWRRKDMPTKPAPVLIFVPGGAWVHGSRAIQGYAVLSRLAAQGWVCLSIDYRVAPHHRWPRHILDVKTAIAWARANVDKFGGDRNFIAVAGCSAGGHLSALAGLTANDPQYQAELPEGSDTSVDAVVGIYGRYDWEDRSTPERARFVDFLERVVVQRTIDRHPEVFRDASPIQRVTRNAPPFLVIHGSRDCVIPVEQARSFVERLRAVSRSQVGYLELPGAGHGFDLLDGARTGPTAHAIALFLNQVHRSRAQFAKEVI | – | – | sera showing anti-LipC antibodies ([4]; HIV+TB+ patients): 6/6; reactivity of control sera ([4]; HIV+TB-, HIV-PPD+, HIV-PPD- control sera): background cross-reactivity; sera showing anti-LipC antibodies ([4]; HIV-TB+ patients): 5/6; sera showing anti-LipC antibodies ([4]; TB patients (HIV-TB+ and HIV+TB+)): 11/12
